Legend:
[1] = Thio T binding (amyloid fibril formation); format: physicochemical; design: key to Thio T Binding: b, binding; n, not binding; conditions: 1 mg/ml in 5% D-mannitol, 0.01% sodium azide
Description: The kinetics of fibril formation in vitro is generally a slow process over several days or weeks, and can be monitored by the increase of fluorescence intensity of the cross-β-sheet–sensitive dye, Thio T [15]. Thio T fluorescence is thereby insignificant during the initial incubation period of amyloid aggregation due to the nonexistence of Thio T–sensitive β-sheet aggregates. After the initial phase, a time-dependent increase of fluorescence intensity is observed until a maximum intensity is reached, at which time maximal fibril formation has occurred. […] For the Thio T binding studies, all GnRH analogs were incubated at room temperature at a concentration of 1 mg/ml in 5% D-mannitol, conditions identical to the formulation used in the animal experiments. In addition, 0.01% sodium azide was added. The Thio T fluorescence was monitored daily for all analogs over a period of 21 d (Figure 1).
GnRH analogs were dissolved in a glass tube in 1 ml of 5% D-mannitol and 0.01% sodium azide at a concentration of 1 mg/ml. The GnRH analogs were then incubated at room temperature without stirring. The fibril formation was monitored by EM, CR, and time-resolved by Thio T binding studies. Three independent experiments were performed for each sample.
A 10-μl aliquot of peptide sample was diluted into 500 μl of water with 5% D-mannitol containing 0.01% (w/v) sodium azide. The solution was mixed with 10 μl of 1 mM Thio T prepared in the same solution. Fluorescence was measured immediately after addition of Thio T. The experiment was measured on a spectrofluorimeter (Photon Technology International) with excitation at 450 nm and emission at 482 nm. The fluorescence intensity at 482 nm was plotted against incubation time (day). A rectangular 10-mm quartz microcuvette was used. Three independent experiments were performed for each sample.

[2] = tested on: plasma luteinizing hormone (LH) levels; conditions: duration of action class as listed in Table 1; castrated male rat assay; ref Tables S1 and S2; cited from earlier work
Text: Table 1 Biochemical and Biophysical Properties of Aggregates By GnRH-Analogs | column: Action || Supplement pbio.0060017.st001.doc, table 1: Table S1: Short acting GnRH analogs with their duration of action | column: Duration of action^b || Supplement pbio.0060017.st002.doc, table 1: Table S2: Long acting GnRH analogs with their duration of action | column: Duration of action^b || (+ 2 further places)

Substance: Ac-DNal-DCpa-Agl(Nic)-Ser-Aph(Ac)-DAph(Ac)-Leu-ILys-Pro-DAla-NH2 [L20]
- Thio T Binding ([1]; room temperature without stirring, monitored daily over 21 d, fluorescence ex 450 nm / em 482 nm, three independent experiments): b
- Thio T binding (in words) ([1]; room temperature, 21 d): bind significantly more Thio T during the entire experiment
- Action [2]: intermediate
